According to patent US20100016285A1, “HETEROCYCLIDENE-N-(ARYL) ACETAMIDE DERIVATIVE” (MOCHIDA PHARMACEUTICAL CO., LTD., priority 2007, published 2010):
Where two headings read alike, the source gives them in different places. Each block holds one molecule with its values, some of them ahead of it.

Tests used:
[1] = cited from earlier work; for Change of rat rectal temperature: reference information (Non-Patent Document 4 or 5); for Change in rectal temperature in rats: from published information (Non-Patent Document 4 or 5)
[2] = Effects on rectal temperature (8-2), oral administration to rats; format: in vivo, rat; conditions: single dose of 10 mg/kg, 30, 60 and 120 minutes, maximum absolute difference vs vehicle
Method: (§1) (8-2) Effects on Rectal Temperature
A test compound was orally administered to rats at single dose of 10 mg/kg. Then rectal temperature was measured 30, 60 and 120 minutes after administration.
(§2) Differences of the mean value between a group treated with test substance and a vehicle-treated group were calculated at all measuring points and, based on the maximum absolute value of differences, changes in rectal temperature were divided into the following three categories:
(§3) −: the maximum value was less than 0.5 degree Celsius +: the maximum value was more than 0.5 degree but less than 1.0 degree Celsius ++: the maximum value was more than 1.0 degree Celsius

[3] = Effects on rectal temperature (8-1), oral administration to rats; format: in vivo, rat; conditions: oral single doses of 3, 10 and 30 mg/kg; 30, 60 and 120 minutes; maximum absolute difference vs vehicle
Method: (8-1) Effects on Rectal Temperature
A test compound was orally administered to rats at single doses of 3, 10 and 30 mg/kg. Then rectal temperature was measured 30, 60 and 120 minutes after administration.
as §2, §3

[4] = Effects on rectal temperature (8-2), administration into tail veins of rats; format: in vivo, rat; conditions: Intravenous, single dose of 1 mg/kg; 15, 30 and 60 minutes; maximum absolute difference vs vehicle
Method: as §1
A test compound was administered to rats into tail veins at single dose of 1 mg/kg. Then rectal temperature was measured 15, 30 and 60 minutes after administration.
as §2, §3

[5] = target: T1, human TRPV1 (Homo sapiens, UniProt Q8NER1); assay: Capsaicin (10 nmol/L)-induced Ca influx in transformed CHO cells, FDSS-6000 (b-2), IC50; format: cell-based
T1 construct: expressed in transfected cells; host or cells: CHO-K1 cells, pCAGGS vector, clones selected by limiting dilution
T1 sequence (Q8NER1 whole entry): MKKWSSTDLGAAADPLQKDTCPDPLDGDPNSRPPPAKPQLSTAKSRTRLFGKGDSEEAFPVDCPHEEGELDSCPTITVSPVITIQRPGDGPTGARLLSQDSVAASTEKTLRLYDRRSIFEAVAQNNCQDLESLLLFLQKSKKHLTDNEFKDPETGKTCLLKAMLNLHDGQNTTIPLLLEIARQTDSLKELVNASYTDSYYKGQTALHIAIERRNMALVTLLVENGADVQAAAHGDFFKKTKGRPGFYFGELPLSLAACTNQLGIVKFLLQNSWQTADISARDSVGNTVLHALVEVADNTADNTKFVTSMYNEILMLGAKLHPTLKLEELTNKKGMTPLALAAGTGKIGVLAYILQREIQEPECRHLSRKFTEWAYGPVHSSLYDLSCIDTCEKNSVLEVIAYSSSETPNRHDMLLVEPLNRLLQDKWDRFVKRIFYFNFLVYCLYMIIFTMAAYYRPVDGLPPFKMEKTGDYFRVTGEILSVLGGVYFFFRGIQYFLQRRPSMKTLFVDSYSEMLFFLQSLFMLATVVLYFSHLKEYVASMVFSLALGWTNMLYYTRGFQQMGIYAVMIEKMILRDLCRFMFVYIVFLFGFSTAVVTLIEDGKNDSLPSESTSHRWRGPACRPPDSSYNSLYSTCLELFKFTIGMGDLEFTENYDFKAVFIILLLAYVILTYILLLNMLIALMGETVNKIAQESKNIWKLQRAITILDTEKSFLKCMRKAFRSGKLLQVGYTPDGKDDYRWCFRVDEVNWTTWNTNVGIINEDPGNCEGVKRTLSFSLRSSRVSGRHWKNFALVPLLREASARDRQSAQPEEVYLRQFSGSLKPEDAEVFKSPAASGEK
Source text: (1) Measurement of Capsaicin-Induced Ca Influx in a Transformed CHO Cell Line Expressing Human TRPV1
(a) Establishment of a Transformed CHO Cell Line Expressing Human and Rat TRPV1
Human and rat vanilloid receptor 1 (hTRPV1 and rTRPV1) cDNA was cloned from human brain and rat dorsal root ganglion, respectively. The cloned TRPV1 cDNA was incorporated in a pCAGGS vector. The vector was introduced to a CHO-K1 cell line, thus performing transformation. Clones obtained by limiting dilution were stimulated with capsaicin. Clones with a high responsiveness were selected using an increase in the Ca concentration as an indicator. The selected clones were used for the following experiment.
(b-2) Measurement of Ca Influx using FDSS-6000
The transformed CHO cells expressing human or rat TRPV1 were inoculated in a 96-well plate (with black walls and transparent bottoms, manufactured by Greiner) at a density of 40,000 cells per well. The cells were cultured at 37° C. in 5% CO2 atmosphere for one night. A loading solution of FLIPR Calcium 3 assay kit (manufactured by Molecular Devices Corporation) containing 2.5 mmol/L of probenecid was then added to each of the wells in the same amount as the culture medium, and the cells were cultured at 37° C. for 60 minutes. For three minutes after the cells were stimulated with capsaicin (10 nmol/L), the change of the intracellular Ca concentration was measured using FDSS-6000 (λex: 480 nm, λem: 540 nm, manufactured by Hamamatsu Photonics K.K.). The integrated values of the increase rate of the intracellular Ca concentration were calculated for a group treated with the compounds of the present invention and a group treated with a vehicle. Then, the concentration of the compound of the present invention was calculated that inhibits 50% of the intracellular Ca concentration increase induced by capsaicin (IC50). Using this value as the index, inhibitory effects of the test compounds were compared. In addition, when IC50 value in human TRPV1 was less than 100 nmol/L, it was shown as A in Table 1C.

Compound: O=C(Nc1ccc(C(F)(F)F)cn1)N1CCN(c2ncccc2C(F)(F)F)CC1 [Compound A, 4-(3-trifluoromethylpyridine-2-yl)-N-(5-trifuluoromethylpiridine-2-yl)-1-piperadinecarboxamide]
- Change of rat rectal temperature ([1]; Oral): Increase^1)
- Change in rectal temperature in rats [1]: increased^1)

Compound: CC(C)(C)c1ccc(/C=C/C(=O)Nc2ccc3c(c2)OCCO3)cc1 [Compound B, (E)-3-(4-t-butylphenyl)-N-(2,3-dihydrobenzo[b][1,4]dioxine-6-yl)acrylamide]
- Change of rat rectal temperature ([1]; Intraperitoneal): Increase^1)
- Change in rectal temperature in rats [1]: Increased^1)

Compound: CC(=O)Nc1nc2c(Oc3cc(-c4ccc(C(F)(F)F)cc4)ncn3)cccc2s1 [Compound C, N-(4-[6-(4-trifluoromethyl-phenyl)-pyrimidin-4-yloxy]-benzothiazol-2-yl)-acetamide, reference compound]
- Change of rat rectal temperature [2]: ++ (Increase) (the maximum value was more than 1.0 degree Celsius)
- Change in rectal temperature in rats [3]: ++ (increased) (the maximum value was more than 1.0 degree Celsius)

Compound: O=C(/C=C1\CCCOc2cc(C(F)(F)F)ccc21)Nc1cccc2c1CC(O)CN2 (stereo not drawn) [Compound D, (E)-2-(8-trifluoromethyl-3,4-dihydrobenzo[b]oxepin-5(2H)-ylidene)-N-(3-hydroxy-1,2,3,4-tetrahydroquinolin-5-yl)acetamide, reference compound]
- Change of rat rectal temperature [4]: + (Increase) (the maximum value was more than 0.5 degree but less than 1.0 degree Celsius)
- Change in rectal temperature in rats [3]: ++ (increased) (the maximum value was more than 1.0 degree Celsius)

Compound: CCN1C(=O)NCc2c(NC(=O)/C=C3\CC(COC)(COC)Oc4cc(C(F)(F)F)ccc43)cccc21 [Example 311, (E)-2-(2,2-bis(methoxymethyl)-7-trifluoromethylchroman-4-ylidene)-N-(3,4-dihydro-1-ethyl-2(1H)-quinazolinone-5-yl)acetamide]
- IC50 [5]: < 100 nM

Compound: CCN1C(=O)NCc2c(NC(=O)/C=C3\CC4(CCOCC4)Oc4cc(C(F)(F)F)ccc43)cccc21 [Example 312, (E)-2-(7-trifluoromethyl-spiro[chroman-2,4′-tetrahydropyran]-4-ylidene)-N-(3,4-dihydro-1-ethyl-2(1H)-quinazolinone-5-yl)acetamide]
- IC50 [5]: < 100 nM

More lines, main results first:

- IC50 [5]: < 100 nM
Compound: CN1C(=O)NCc2c(NC(=O)/C=C3\CC(C)(C)Oc4cc(C(F)(F)F)ccc43)cccc21 [Example 305, (E)-2-(2,2-dimethyl-7-trifluoromethylchroman-4-ylidene)-N-(3,4-dihydro-1-methyl-2(1H)-quinazolinone-5-yl)acetamide]
- Change of rat rectal temperature [4]: − (the maximum value was less than 0.5 degree Celsius)

- IC50 [5]: < 100 nM
Compound: CCN1C(=O)NCc2c(NC(=O)/C=C3\CC(C)(C)Oc4cc(C(F)(F)F)ccc43)cccc21 [Example 309, (E)-2-(2,2-dimethyl-7-trifluoromethylchroman-4-ylidene)-N-(3,4-dihydro-1-ethyl-2(1H)-quinazolinone-5-yl)acetamide]

- IC50 [5]: < 100 nM
Compound: CCN1C(=O)NCc2c(NC(=O)/C=C3\CC(CC)(CC)Oc4cc(C(F)(F)F)ccc43)cccc21 [Example 310, (E)-2-(2,2-diethyl-7-trifluoromethylchroman-4-ylidene)-N-(3,4-dihydro-1-ethyl-2(1H)-quinazolinone-5-yl)acetamide]

- IC50 [5]: < 100 nM
Compound: CN1C(=O)NCc2c(NC(=O)/C=C3\NC(C)(C)Oc4cc(C(F)(F)F)ccc43)cccc21 [Example 313, (Z)-2-(2,3-dihydro-2,2-dimethyl-7-trifluoromethyl-4H-1,3-benzoxazin-4-ylidene)-N-(3,4-dihydro-1-methyl-2(1H)-quinazolinone-5-yl)acetamide]
